The source of these data is patent publication US10975069B2, “Sigma-2 receptor ligand drug conjugates as antitumor compounds, methods of synthesis and uses thereof” (priority 2014, dated 2021).

For test [1], the target named is T1, cystine/glutamate antiporter (system Xc′) (Homo sapiens, UniProt Q9UPY5).
T1 construct: endogenous in cells; host or cells: AsPC-1
T1 sequence (Q9UPY5 1-501): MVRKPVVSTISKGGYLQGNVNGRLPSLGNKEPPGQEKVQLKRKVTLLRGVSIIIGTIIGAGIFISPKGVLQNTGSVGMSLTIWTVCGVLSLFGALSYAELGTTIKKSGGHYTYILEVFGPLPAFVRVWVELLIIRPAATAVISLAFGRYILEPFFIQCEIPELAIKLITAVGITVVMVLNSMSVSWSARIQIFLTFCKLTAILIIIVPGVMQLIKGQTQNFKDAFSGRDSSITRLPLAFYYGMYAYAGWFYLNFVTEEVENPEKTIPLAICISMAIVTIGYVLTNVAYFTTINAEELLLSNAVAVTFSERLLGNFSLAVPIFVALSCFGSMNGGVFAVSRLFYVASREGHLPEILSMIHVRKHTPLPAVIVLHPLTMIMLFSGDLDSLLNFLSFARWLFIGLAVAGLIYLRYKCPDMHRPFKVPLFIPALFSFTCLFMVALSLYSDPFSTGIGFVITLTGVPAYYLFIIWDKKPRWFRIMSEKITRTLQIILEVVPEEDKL
T1 sequence (P08195 1-529 partner): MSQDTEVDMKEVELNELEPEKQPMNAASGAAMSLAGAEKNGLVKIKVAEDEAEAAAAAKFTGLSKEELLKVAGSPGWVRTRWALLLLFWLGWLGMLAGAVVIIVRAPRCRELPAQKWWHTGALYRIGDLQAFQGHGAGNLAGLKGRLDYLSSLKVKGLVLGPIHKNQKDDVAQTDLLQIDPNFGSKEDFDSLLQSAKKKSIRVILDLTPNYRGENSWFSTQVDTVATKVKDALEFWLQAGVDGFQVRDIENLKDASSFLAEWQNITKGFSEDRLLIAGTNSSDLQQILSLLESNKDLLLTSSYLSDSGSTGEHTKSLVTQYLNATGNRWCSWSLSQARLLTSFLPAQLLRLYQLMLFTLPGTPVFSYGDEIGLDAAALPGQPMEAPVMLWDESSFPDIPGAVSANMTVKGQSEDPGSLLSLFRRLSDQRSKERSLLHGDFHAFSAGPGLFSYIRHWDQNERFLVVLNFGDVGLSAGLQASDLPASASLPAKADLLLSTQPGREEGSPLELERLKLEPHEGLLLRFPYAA
The experiment in a line: Cystine uptake assay in AsPC-1 cells. In kind it is cell-based. The settings on record: FIG. 11A; for reduction in cystine uptake: same concentration of each compound (200 μM), DMSO control. The method, then: In these experiments, cystine uptake assay was performed as previously described (Dixon, S. J. et al. Cell 2012; 149: 1060-1072). Briefly, […] AsPC-1 cells/well were seeded overnight in 6 well plate. The next day, cells were washed twice in pre-warmed Na^+-free uptake buffer (137 mM choline chloride, 3 mM KCl, 1 mM CaCl2, 1 mM MgCl2, 5 mM D-glucose, 0.7 mM K2HPO4, and 10 mM HEPES [pH 7.4]). Subsequently, cells were incubated for 10 minutes at 37° C. in 1 ml of the uptake buffer to deplete cellular amino acids. The buffer was then replaced with 600 μl uptake buffer containing 200 μM of SW V-49s and 0.12 μCi (80-110 mCi/mmol) of L-[3,3′-^14C]-cystine (American Radiolabeled Chemicals. St Louis. Mo.) and incubated for 3 minutes at 37° C. After that, cells were washed three times with ice-cold uptake buffer and lysed in 500 μl of 0.1 M NaOH. To this lysate, 1 ml of scintillation fluid was added, and radioactive counts per minute were obtained by using a scintillation counter.
To evaluate this mechanism. AsPC-1 cells were plated in 6 well plate for 24 hours. Cells were then treated with the same concentration of SV119, Erastin, combination of SV119 and Erastin. SW V-49s, and DMSO as a control. After that, a cystine uptake assay was performed. […] Erastin, and combination of SV 119 and Erastin, respectively (p=0.004, FIG. 11A).

In test [2] the test system is caspase 3/7. The experiment in a line: CASPASE-GLO caspase 3/7 assay in AsPC-1 cells. In kind it is cell-based, human. Particulars: for caspase activity compared to 4 μM SW V-49s: 50 μM, 24 hr., FIG. 5A. The source says:
In these experiments, the inventors investigated whether compounds of the present teachings were lethal towards pancreatic cancer cells by triggering an apoptosis cell death pathway, a ferroptosis cell death pathway, or a combination thereof. The inventors thus performed assays for caspase 3/7 as an indicator of apoptotic cell death, and assays for the generation of reactive oxygen species (ROS) as an indicator of ferropoptotic cell death. […] In FIG. 5B, results are shown for Caspase-Glo® (Promega) assays of Aspc-1 cells treated with 8 μM SW V-49s, 8 μM Erastin, 8 μM SV119, or 8 μM of an equimolar mixture of Erastin and SV 119, for 7 hrs.
In these experiments, caspase-3/7.8 and 9 activities were measured In AsPC-1 cells using the corresponding CASPASE-GLO® Assay according to the manufacturer's instructions (Promega, Madison. Wis.). This assay is based on a caspase-specific substrate, which is cleaved to release aminoluciferin, a substrate of luciferase that results in caspase-specific luminescence signals. Cells were seeded at a density of 2×10^4 in white 96-well, clear bottom plates for 24 hours before treatment with 4 μM of compounds. The contents were then mixed using a plate shaker for 30 seconds, thereafter incubated at room temperature for 90 minutes. Luminescence signal was measured using a multi-mode microplate reader (BioTek). Assay was performed in triplicates, and the caspase activity of DMSO was considered as a base line.
The present inventors have shown that SV119 induces caspase-3 dependent apoptosis (Kashiwagi, H., el al. Mol Cancer 2007; 6:48). In these experiments, AsPC-1 cells were treated with 4 μM of SW V-49s. SV119, Erastin, and equimolar mixture of SV119 and Erastin for 24 hours. Using CASPASE-GLO® Assays, Caspase-3 level was measured to assess the activity of SW 119 domain of the SW V-49s compound and Caspase-8 and 9 levels were measured to identify which apoptotic pathway was involved.

Regarding `COc1ccc(C)cc1NC(=O)OC1C[C@H]2CCC[C@@H](C1)N2CCCCCCN` (some centres unmarked) [SV119, reference compound], in test [1], the “reduction in cystine uptake” value worked out at 25%. The “caspase activity compared to 4 μM SW V-49s” value in test [2] (AsPC-1 cells) is given as “far less caspase activity”.

With `CCOc1ccccc1-n1c(C(C)N2CCN(C(=O)COc3ccc(Cl)cc3)CC2)nc2ccccc2c1=O` (centres unmarked) [Erastin], the “reduction in cystine uptake” value in test [1] is recorded as 41%. For the same compound, the “caspase activity compared to 4 μM SW V-49s” value in test [2] (AsPC-1 cells) is “far less caspase activity”.

On to `CCOc1ccccc1-n1c(CN2CCN(C(=O)COc3ccc(CNCCCCCCN4C5CCCC4CC(OC(=O)Nc4cc(C)ccc4OC)C5)cc3)CC2)nc2ccccc2c1=O.O=C(O)C(=O)O` (centres unmarked) [SW V-49s], for which, in test [1], the “fold less cysteine uptake” value was determined as 3.7 fold and the “reduction in cystine uptake” value came out at 85%. Also, the “caspase-3 fold above baseline” value in test [2] (4 μM, 24 hours, AsPC-1, DMSO baseline, FIG. 12A) came to 3.4 fold. Moreover, the “increase in caspase 3/7 activity compared to all controls” value in test [2] (8 μM, 7 hrs, AsPC-1 cells, FIG. 5B) is on record as “approximately 3 fold”.
